Measured values from patent publication US8962322B2, “Enhancers of induced pluripotent stem cell reprogramming” (City of Hope, priority 2012, dated 2015).

Columns and labels:
luciferase [1] = biological target: T1, luciferase (Photinus pyralis, UniProt P08659); assay: inhibition of luciferase activity at 1 μM (applicant's observation)
Description: OAC1 and related analogs belong to a structural class of 5-substituted pyrrolo[2,3-b]pyridine- and indole-based benzamides. Very little is reported about their biological activities. […] However, in a different assay called ATLAS (any target ligand affinity screen), no inhibition was detected (49).

[2] = test system: β-catenin-responsive reporter gene Topflash; assay: Topflash luciferase reporter assay in CV1 cells (Wnt signaling); assay type: cell-based; conditions: 1 μM OAC1 or 2 μM BIO, 48 hr
Procedure: Whether OAC1 regulates major signaling pathways that are critical for embryonic stem cell pluripotency was investigated. […] CV1 cells were transfected with the β-catenin-responsive reporter gene Topflash, and the transfected cells were treated with vehicle control or OAC1 (FIG. 6C). The glycogen synthase kinase 3β (GSK3β) inhibitor BIO was included as a positive control (42).
AzaC, 25 μg/ml Vc, 10 nM Am580, 5 μM tranylcypromine, and 0.5 mM VPA. Luciferase reporter assays were performed as described (51) 24 hr after compound treatment or at indicated time points. For Topflash reporter assays, 0.2 μg β-catenin-responsive Topflash reporter gene plasmid was introduced into CV1 cells using trasfection (Bio-Rad). Compounds were added 6 hr after transfection. Luciferase activity was measured 48 hr after compound treatment using the Glo Luciferase Assay System (Promega).

p53 = assay: RT-PCR of p53 expression in treated MEFs; assay type: cell-based, mouse; conditions: MEFs treated for two days
Procedure: (§1) Inhibition of the p53-p21 signaling increased reprogramming efficiency (26, 28-31, 41). To investigate whether compound OAC1 enhanced reprogramming efficiency by affecting this pathway, MEFs were treated with vehicle control or OAC1 and determined the expression level of p53 and p21 in the treated cells.
(§2) RT-PCR analysis: Total RNA was purified with Trizol reagent (Invitrogen). Reverse transcription was performed with 1 μg of RNA using Omniscript® Reverse Transcription Kit (Qiagen). Quantitative PCR was performed using iTaq SYBR Green Supermix with Rox (Bio-rad) in Applied Biosystem Step one plus real-time PCR system. […]

luciferase [3] = biological target: T1, luciferase; conditions: cited from earlier work
p21 = assay: RT-PCR of p21 expression in treated MEFs; assay type: cell-based, mouse; conditions: MEFs treated for two days
Procedure: as §1, §2

[4] = test system: human fibroblast cells (IMR90); assay: human iPSC derivation from 4F (OSKM)-transduced IMR90 fibroblasts; assay type: cell-based
Procedure: It has been shown that compound OAC1 (Oct4-activating compound I) and two of its structural analogs OAC2 and OAC3 can enhance reprogramming efficiency, when added to the reprogramming mixture along with the four transcription factors, Oct4, Sox2, Klf4, and c-Myc (OSKM), in mouse system. The OAC compounds were tested to determine if they can enhance reprogramming efficiency in human system. The reprogramming process was performed as described in the diagram (FIG. 14a). Briefly, human fibroblast cells (IMR90) were induced to reprogram into induced pluripotent stem cells (iPSCs) using the four reprogramming factors (4F), OSKM. The day when the cells were transduced with the four reprogramming factors was referred to as day 0. Cells were cultured in IMR90 media for six days. On day 6, the transduced cells were split and seeded onto feeders. On day 7, IMR90 culture media was changed to hESC culture media and started compound treatment. Compound treatment was lasted for one week. Cells were monitored for the appearance of human embryonic stem cell (ESC)-like colonies. On day 9, several small human ESC-like colonies appeared in both 4F+OAC1 and 4F+OAC2-treated cells, however, human ESC-like colonies were not observed in 4F+vehicle (4F)-treated cells until day 11. To determine the effect of OAC on the efficiency of human iPSC derivation, the number of human ESC-like colonies were counted under all three conditions at day 18. Both OAC 1 and its structural analog OAC2 increased the number of human ESC-like colonies more than two-fold (FIG. 14b, c). The human ESC-like colonies were picked from either 4F or 4F+OAC-treated cells and expanded under human ESC culture conditions. These cells were able to expand and stably produce human iPSC clones with characteristic human ESC-like morphology (FIG. 14d).

T1 sequence (P08659 whole entry): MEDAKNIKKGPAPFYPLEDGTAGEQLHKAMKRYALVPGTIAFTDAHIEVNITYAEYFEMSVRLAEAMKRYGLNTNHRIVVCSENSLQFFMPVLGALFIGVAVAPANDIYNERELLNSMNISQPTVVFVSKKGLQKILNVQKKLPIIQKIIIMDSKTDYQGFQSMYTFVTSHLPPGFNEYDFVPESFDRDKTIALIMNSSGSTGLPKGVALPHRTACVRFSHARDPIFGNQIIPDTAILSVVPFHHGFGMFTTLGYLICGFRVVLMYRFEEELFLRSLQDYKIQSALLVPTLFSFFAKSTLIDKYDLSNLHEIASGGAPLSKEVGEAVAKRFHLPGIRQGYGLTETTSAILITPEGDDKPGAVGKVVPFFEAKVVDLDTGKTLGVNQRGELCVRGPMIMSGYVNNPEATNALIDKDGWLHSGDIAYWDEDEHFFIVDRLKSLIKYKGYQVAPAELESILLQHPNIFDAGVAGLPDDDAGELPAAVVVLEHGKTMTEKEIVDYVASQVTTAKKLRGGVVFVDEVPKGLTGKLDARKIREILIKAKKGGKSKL

With `O=C(Nc1cc2cc[nH]c2cn1)c1ccccc1` [OAC1, N-(1H-6-azaindol-5-yl)benzamide] the “inhibition of luciferase activity” value (luciferase [1]) was “no inhibition”, the “effect on Topflash reporter activity” value [2] was “no effect” and the “p53 expression level versus DMSO” value (p53) was “no significant difference”. For the same compound, the “inhibition in ATLAS assay” value (luciferase [3]) was “no inhibition”, the “p21 expression level versus DMSO” value (p21) was “no significant difference” and the “day at which human ESC-like colonies appeared” value ([4]; IMR90, 4F+compound, day 0 = transduction, 4F+vehicle day 11) was 9 days. The “increase in the number of human ESC-like colonies” value ([4]; IMR90, day 18, versus 4F) was “more than two”.
